In paper PMC5880945, “D-Arg^0-Bradykinin-Arg-Arg, a Latent Vasoactive Bradykinin B2 Receptor Agonist Metabolically Activated by Carboxypeptidases” (Frontiers in Pharmacology, 2018):
Entries after “also recorded” stand apart in the source; their conditions may differ. Like-named read-outs stand apart in the source and are kept apart here. Square brackets hold non-standard residues; d marks the D form. Peptide text beside a SMILES is read from it.

Key:
[1] = system: B2R, human isolated umbilical vein; assay: Human umbilical vein contractility assay (bioassay for the endogenous B2R); conditions: for EC50: 95% confidence limits in parentheses, read-out: contractile EC50; for contractile potency, in words: human umbilical vein
Procedure: The institutional research ethics board (CHU de Québec) approved the anonymous use of human umbilical cord segments obtained after elective cesarean section deliveries (file number: 2012-323). Informed written consent was obtained from mothers. Umbilical vein rings, used as a contractile bioassay for the BK B2R, were prepared and suspended in organ baths and submitted to equilibration in Krebs’ solution as described ([Marceau et al., 1994]; [Gera et al., 2011]). The vascular preparation was used to assess the effect of the peptidase inhibitors (introduced 30 min before the agonist) on the apparent potency of r-BK and r-BK-RR. The full cumulative concentration-effect curves were recorded for each peptide; a large concentration of BK (9.4 μM) was added to record the maximal contractile effect mediated by the B2Rs for low potency agonists. Tissues were used only once and discarded; controls curves were obtained from other vascular rings from the same vein.
Results are presented as means ± SEM. Radioligand binding data were fitted by non-linear regression to a one-site competition equation using a least-square method (Prism 5.0, GraphPad Software Inc., San Diego, CA, United States) and IC50 values calculated from this procedure. The same computer program was used to draw concentration-effect curves generated with the contractility assay (least square fitting of sigmoidal dose-response equation with variable slope) and to derive contractile EC50 values. Data describing the dose-response relationship of novel peptides vs. hypotension and heart rate changes, the baseline values of heart rate and mean arterial blood pressure and the effect of drugs on the hemodynamic responses to r-B K and r-BK-RR were assessed by using one-way analysis of variance (ANOVA) followed by the Dunnett’s test (repeated comparison with a common control; Prism 5.0 software).

anesthetized rats = assay: In vivo hemodynamics in anesthetized rats pretreated with icatibant or peptidase inhibitors; set-up: species or system male Sprague-Dawley rats; conditions: 1.6 μg/kg i.v.; for hypotensive response after Plummer’s inhibitor, in words: Dunnett’s P < 0.05 (r-BK-RR); for heart rate response after enalaprilat + Plummer’s inhibitor, in words / duration of hypotensive episode after enalaprilat + Plummer’s inhibitor, in words / hypotensive response after enalaprilat + Plummer’s inhibitor, in words: enalaprilat 0.1 mg/kg + Plummer’s inhibitor 0.75 mg/kg i.v. 15 min before; for duration of hypotensive episode after enalaprilat + Plummer’s inhibitor, in words / hypotensive response after enalaprilat + Plummer’s inhibitor, in words: Dunnett’s P < 0.01 (r-BK); for hypotensive response after enalaprilat + Plummer’s inhibitor, in words: P < 0.05 (r-BK-RR); for duration of hypotensive episode after enalaprilat, in words: Dunnett’s P < 0.001 (r-BK-RR); for duration of residual hypotensive episode after icatibant, in words / heart rate response after icatibant, in words / hypotensive response after icatibant, in words: icatibant 75 μg/kg i.v. 15 min before; for hypotensive response after icatibant, in words: Dunnett’s P < 0.001 (r-BK), P < 0.01 (r-BK-RR)
Procedure: All surgical and experimental procedures were reviewed and approved by the Animal Care and Handling Committee of Laval University, in accordance with the Canadian Council on Animal Care. Experiments were performed on male Sprague-Dawley rats (300–375 g) purchased from Charles River Laboratories (St-Constant, QC, Canada). The rats were housed in a light-controlled (12:12-h light-dark cycle (lights on at 0600)) and temperature-regulated room (22 ± 1°C). Animals had free access to normal chow diet and tap water. They were allowed to acclimate to their environmental conditions for 1 week prior to being studied. At the end of the acclimation period, the rats were anesthetised with sodium pentobarbital (50 mg kg^-1, i.p., supplemented as required) and had one catheter implanted into the right jugular vein [for intravenous (i.v.) injection] and one into the left femoral artery [for direct and continuous measurement of blood pressure and heart rate as previously described ([Jean et al., 2016])]. Experiments started at least 20 min following the end of surgery in anesthetised rats.
The mechanism subserving the cardiovascular responses to random i.v. injections of r-BK and r-BK-RR at the dose of 1.6 μg/kg, was evaluated in rats pretreated with specific antagonists. In these experiments, the rats were separated in four groups depending on the antagonist tested, and the cardiovascular responses to the peptides agonists were compared with those elicited in the untreated control group of rats. In the first group of treated rats, the long acting and selective B2R antagonist, icatibant (Hoe 140) (D-Arg-[Hyp^3, Thi^5, D-Tic^7, Oic^8]) bradykinin ([Hock et al., 1991]; [Wirth et al., 1991]; [Rhaleb et al., 1992]; [Marceau et al., 1994]) was intravenously administered as bolus (75 μg/kg, 0.1 ml) following a 10 min period of baseline measurements of heart rate and blood pressure. Fifteen minutes later, recording changes in blood pressure and heart rate elicited by i.v. injection of peptide vehicle (saline-BSA 0.1%) followed by random injections of r-BK and r-BK-RR, were made as described above. The next peptide was administered once all recorded cardiovascular parameters had returned to baseline after the previous injection. Further experiments were made in a second group of rats pretreated with the ACE inhibitor, enalaprilat. In these experiments, enalaprilat was intravenously administered as bolus ([…], 0.1 ml) 15 min before the i.v. injections of peptide vehicle and both customized peptides, as above. Further experiments were also carried out in rats pretreated with the Plummer’s inhibitor (mercaptomethyl-3-guanidinoethylthiopropanoic acid) a high affinity inhibitor of arginine carboxypeptidases that is an arginine analog ([Plummer and Ryan, 1981]). The inhibitor was intravenously administered as bolus (0.75 mg/kg, 0.1 ml) followed 15 min later by the i.v. injections of saline-BSA 0.1%, and then r-BK and -r-BK-RR (1.6 μg/kg) in random order. A fourth group of rats was pretreated with a combined i.v. injection of enalaprilat (0.1 mg/kg) and the Plummer’s inhibitor (0.75 mg/kg) 15 min before the randomized i.v. injections of both customized peptides, as above. The doses of different inhibitors were based on preliminary experiments and from previous studies performed by us and others ([Ishida et al., 1989]; [Wirth et al., 1991]; [Muto et al., 2003]; [Jean et al., 2016]). At the end of the experiments the rats were euthanized with an overdose of sodium pentobarbital (240 mg/kg, i.v.).
Results are presented as means ± SEM. Radioligand binding data were fitted by non-linear regression to a one-site competition equation using a least-square method (Prism 5.0, GraphPad Software Inc., San Diego, CA, United States) and IC50 values calculated from this procedure. […]

[2] = + Plummer’s inhibitor 1 μM, 30 min before agonist
[3] = + enalaprilat 1 μM + Plummer’s inhibitor 1 μM, 30 min before agonist
[4] = + enalaprilat 1 μM, 30 min before agonist
[5] = Plummer’s inhibitor 0.75 mg/kg i.v. 15 min before
[6] = enalaprilat 0.1 mg/kg i.v. 15 min before
[7] = enalaprilat 0.1 mg/kg i.v. 15 min before, Dunnett’s P < 0.05 (r-BK)

With `N=C(N)NCCC[C@@H](N)C(=O)N[C@@H](CCCNC(=N)N)C(=O)N1CCC[C@H]1C(=O)N1CCC[C@H]1C(=O)NCC(=O)N[C@@H](Cc1ccccc1)C(=O)N[C@@H](CO)C(=O)N1CCC[C@H]1C(=O)N[C@@H](Cc1ccccc1)C(=O)N[C@@H](CCCNC(=N)N)C(=O)O` [r-BK, D-Arg^0-BK] (H-[dR]RPPGFSPFR-OH) the EC50 [1, 2] was 68.4 nM, the EC50 [1, 3] was 45.1 nM and the EC50 [1, 4] was 61.6 nM. The EC50 ([1]; control (no inhibitor)) was 62.4 nM, the “effect of enalaprilat and/or Plummer’s inhibitor on contractile response, in words” value ([1]; enalaprilat and/or Plummer’s inhibitor, 1 μM each) was “essentially unaffected; also recorded: enalaprilat failed to potentiate r-BK” and the “contractile potency, in words” value [1] was “potent contractile agent”. The “heart rate (tachycardic) response after Plummer’s inhibitor, in words” value (anesthetized rats; [5]) was “no effect”, the “hypotensive response after Plummer’s inhibitor, in words” value (anesthetized rats; [5]) was “no effect” and the “heart rate response after enalaprilat + Plummer’s inhibitor, in words” value (anesthetized rats) was “not different from that seen in untreated rats”. The “duration of hypotensive episode after enalaprilat + Plummer’s inhibitor, in words” value (anesthetized rats) was “significantly potentiated”, the “hypotensive response after enalaprilat + Plummer’s inhibitor, in words” value (anesthetized rats) was “significantly potentiated” and the “duration of hypotensive episode after enalaprilat, in words” value (anesthetized rats; [6]) was “not different from that seen in untreated rats”. The “hypotensive response after enalaprilat, in words” value (anesthetized rats; [7]) was “significantly potentiated”, the “tachycardic response after enalaprilat, in words” value (anesthetized rats; [7]) was “significantly potentiated (P < 0.05, Dunnett’s test) as was the tachycardic response” and the “duration of residual hypotensive episode after icatibant, in words” value (anesthetized rats) was “comparable to those seen in the untreated group”. For the same compound, the “heart rate response after icatibant, in words” value (anesthetized rats) was “comparable to those seen in the untreated group” and the “hypotensive response after icatibant, in words” value (anesthetized rats) was “significantly inhibited”.

With `N=C(N)NCCC[C@@H](N)C(=O)N[C@@H](CCCNC(=N)N)C(=O)N1CCC[C@H]1C(=O)N1CCC[C@H]1C(=O)NCC(=O)N[C@@H](Cc1ccccc1)C(=O)N[C@@H](CO)C(=O)N1CCC[C@H]1C(=O)N[C@@H](Cc1ccccc1)C(=O)N[C@@H](CCCNC(=N)N)C(=O)N[C@@H](CCCNC(=N)N)C(=O)N[C@@H](CCCNC(=N)N)C(=O)O` [r-BK-RR, D-Arg^0-BK-Arg-Arg] (H-[dR]RPPGFSPFRRR-OH) the “effect of combination Plummer’s inhibitor + enalaprilat vs. enalaprilat alone, in words” value ([1]; 1 μM each) was “not significantly more effective than enalaprilat alone”, the EC50 [1, 2] was 850 nM and the EC50 [1, 3] was 1760 nM. The EC50 [1, 4] was 1510 nM, the “effect of Plummer’s inhibitor on apparent contractile potency, in words” value ([1]; Plummer’s inhibitor 1 μM) was “only slightly decreased the apparent potency” and the EC50 ([1]; control (no inhibitor)) was 431 nM. The “contractile potency, in words” value [1] was “less potent than r-BK but more potent than anticipated from the radioligand binding competition assay”, the “duration of hypotensive episode after Plummer’s inhibitor, in words” value (anesthetized rats; [5]) was “not different from those seen in untreated rats” and the “heart rate (tachycardic) response after Plummer’s inhibitor, in words” value (anesthetized rats; [5]) was “not different from those seen in untreated rats”. For the same compound, the “hypotensive response after Plummer’s inhibitor, in words” value (anesthetized rats; [5]) was “significantly reduce the hypotensive response”, the “heart rate response after enalaprilat + Plummer’s inhibitor, in words” value (anesthetized rats) was “not different from those seen in untreated rats” and the “duration of hypotensive episode after enalaprilat + Plummer’s inhibitor, in words” value (anesthetized rats) was “not different from those seen in untreated rats”. For the same compound, the “hypotensive response after enalaprilat + Plummer’s inhibitor, in words” value (anesthetized rats) was “significantly reduce the hypotensive response”, the “duration of hypotensive episode after enalaprilat, in words” value (anesthetized rats; [6]) was “significantly increase the duration of the hypotensive episode” and the “hypotensive response after enalaprilat, in words” value (anesthetized rats; [7]) was “no significant effect on the hypotensive response”. For the same compound, the “duration of residual hypotensive episode after icatibant, in words” value (anesthetized rats) was “not different from those of controls”, the “heart rate response after icatibant, in words” value (anesthetized rats) was “not different from those of controls” and the “hypotensive response after icatibant, in words” value (anesthetized rats) was “strongly reduce the hypotensive response”.
